The term IC50 denotes the point on the concentration scale where inhibition reaches its midpoint.

The structures appear in SMILES notation. Bounds are passed on as bounds.

20 compounds from ChEMBL document CHEMBL1208723, “Synthesis and activity of polyacetylene substituted 2-hydroxy acids, esters, and amides against microbes of clinical importance” (Bioorg Med Chem Lett, 2010) can be followed below.

One assay relates to Pseudomonas aeruginosa. The experiment in a line: Antibacterial activity against Pseudomonas aeruginosa ATCC 27853. It counts as functional.
The test system of a further assay is Candida parapsilosis. Put plainly: Antifungal activity against Candida parapsilosis. It counts as functional, organism-based.
Another assay deals with Nakaseomyces glabratus. Put plainly: Antifungal activity against Candida glabrata. Format: functional, organism-based.
Assay [1] relates to Staphylococcus aureus. The experiment in a line: Antibacterial activity against Staphylococcus aureus ATCC 25923. It counts as functional.
Another assay relates to Streptococcus pyogenes. The experiment in a line: Antibacterial activity against Streptococcus pyogenes ATCC 19615. It counts as functional.
The test system of another assay is Escherichia coli. Put plainly: Antibacterial activity against Escherichia coli ATCC 25922. Format: functional.
The next assay concerns Candida albicans. Put plainly: Antifungal activity against Candida albicans. It counts as functional, organism-based.
The subject of a further assay is Pichia kudriavzevii. Put plainly: Antifungal activity against Candida krusei. It counts as functional, organism-based.
The next assay relates to Candida tropicalis. Put plainly: Antifungal activity against Candida tropicalis. It counts as functional, organism-based.
The test system of assay [2] is Staphylococcus aureus. The experiment in a line: Antibacterial activity against methicillin-resistant Staphylococcus aureus. It counts as functional.
The mark [3] stands for this setting: Lodderomyces parapsilosis, read-out: IC50.
[4] abbreviates: Nakaseomyces glabratus, read-out: IC50.
The mark [5] stands for this setting: Pichia kudriavzevii, read-out: IC50.
The mark [6] stands for this setting: Candida tropicalis, read-out: IC50.
[7] abbreviates: Candida albicans, read-out: IC50.

Consider `CCCCCC#C/C=C\C#CCCCCCC(O)C(=O)O` (stereo not drawn), for which the “inhibition (INH)” value is on record as greater than 75% with Pseudomonas aeruginosa, greater than 75% in the assay with Staphylococcus aureus [1], greater than 75% in the assay with Streptococcus pyogenes and 50% in the assay on Escherichia coli. In addition, the IC50 result with Candida parapsilosis, with Nakaseomyces glabratus, with Candida albicans, in the assay with Pichia kudriavzevii and in the assay with Candida tropicalis was “Not Active” each time.

`CCCCC#CC#C/C=C/CCCCCCC(O)C(=O)OC(C)C` (stereo not drawn): the “inhibition (INH)” value is greater than 75% in the assay with Pseudomonas aeruginosa; 25% in the assay with Staphylococcus aureus [1]; greater than 75% in the assay with Streptococcus pyogenes; 50% in the assay with Escherichia coli; 50% in the assay with Staphylococcus aureus [2]. Also, the 50% inhibitory concentration (IC50) result with Candida parapsilosis, in the assay on Nakaseomyces glabratus, in the assay with Candida albicans, in the assay with Pichia kudriavzevii and with Candida tropicalis was “Not Active” throughout.

Consider `CCCC#C/C=C\C#CCCCCCC(O)C(=O)O` (stereo not drawn), for which the “inhibition (INH)” value with Pseudomonas aeruginosa was greater than 75%; with Staphylococcus aureus [1], greater than 75%; in the assay with Streptococcus pyogenes it was greater than 75%; in the assay on Escherichia coli, 50%. The IC50 entry in the assay on Candida parapsilosis, in the assay with Nakaseomyces glabratus, in the assay with Candida albicans, with Pichia kudriavzevii and with Candida tropicalis was “Not Active” throughout.

In the case of `CCCC#C/C=C\C#CCCCCCC(O)C(=O)OCCCc1ccccc1` (stereo not drawn), the “inhibition (INH)” value in the assay on Pseudomonas aeruginosa is reported as greater than 75%; in the assay with Staphylococcus aureus [1], 25%; with Streptococcus pyogenes, greater than 75%; with Escherichia coli it was 50%; in the assay with Staphylococcus aureus [2], 25%. Further, the IC50 result in the assay on Candida parapsilosis, with Nakaseomyces glabratus, with Candida albicans, with Pichia kudriavzevii and with Candida tropicalis was “Not Active” in each case.

As to `CCCCC/C=C\C#CC#CCCCCCC(O)C(=O)O` (stereo not drawn), the “inhibition (INH)” value in the assay with Pseudomonas aeruginosa, with Staphylococcus aureus [1], with Streptococcus pyogenes and in the assay with Escherichia coli was greater than 75% each time. The IC50 was 2 µM in the assay on Candida parapsilosis (setting [3]); 500 µM with Nakaseomyces glabratus (setting [4]); “Not Active” in the assay with Candida albicans; 1000 µM in the assay on Pichia kudriavzevii (setting [5]); 1000 µM in the assay on Candida tropicalis (setting [6]).

As for `CCCCC#CC#C/C=C\CCCCCCC(O)C(=O)O` (stereo not drawn), the “inhibition (INH)” value in the assay with Pseudomonas aeruginosa is greater than 75%; with Staphylococcus aureus [1], 25%. Moreover, the half-inhibitory concentration (IC50) result in the assay on Candida parapsilosis, in the assay with Nakaseomyces glabratus, in the assay with Candida albicans, in the assay on Pichia kudriavzevii and with Candida tropicalis was “Not Active” each time.

As to `CCCCCC#C/C=C\C#CC[C@@H]1O[C@](C)(OC)[C@@](C)(OC)OC1=O`, the “inhibition (INH)” value in the assay on Pseudomonas aeruginosa is given as greater than 75%; with Staphylococcus aureus [1] it was 25%; in the assay with Streptococcus pyogenes it was greater than 75%; in the assay on Escherichia coli, 50%; in the assay on Staphylococcus aureus [2], 25%. Besides, the IC50 result with Candida parapsilosis, in the assay on Nakaseomyces glabratus, with Candida albicans, in the assay on Pichia kudriavzevii and in the assay on Candida tropicalis was “Not Active” in each case.

For `CCCCC#CC#C/C=C/CCCCCCC(O)C(=O)NCc1ccccc1` (stereo not drawn), the “inhibition (INH)” value is reported as greater than 75% in the assay with Pseudomonas aeruginosa; 25% in the assay on Staphylococcus aureus [1]; greater than 75% in the assay on Streptococcus pyogenes; 50% with Escherichia coli; 50% in the assay with Staphylococcus aureus [2]. Further, the IC50 entry with Candida parapsilosis, in the assay on Nakaseomyces glabratus, with Candida albicans, in the assay with Pichia kudriavzevii and in the assay on Candida tropicalis was “Not Active” in each case.

As to `CCCCCC#CC#C/C=C/CCCCCC(O)C(=O)OC` (stereo not drawn), the “inhibition (INH)” value was greater than 75% with Pseudomonas aeruginosa; 25% in the assay with Staphylococcus aureus [1]; greater than 75% in the assay with Streptococcus pyogenes; 50% in the assay on Escherichia coli; greater than 75% in the assay on Staphylococcus aureus [2]. Further, the IC50 result is “Not Active” with Candida parapsilosis; 500 µM with Nakaseomyces glabratus (setting [4]); 1000 µM with Candida albicans (setting [7]); “Not Active” with Pichia kudriavzevii; “Not Active” with Candida tropicalis.

`CCCCC#CC#C/C=C/CCCCCC[C@@H]1O[C@](C)(OC)[C@@](C)(OC)OC1=O`: the “inhibition (INH)” value in the assay with Pseudomonas aeruginosa is listed as greater than 75%; in the assay with Staphylococcus aureus [1], 25%; in the assay on Streptococcus pyogenes, greater than 75%; with Escherichia coli, 50%; in the assay with Staphylococcus aureus [2], 25%. In addition, the IC50 result in the assay with Candida parapsilosis, in the assay with Nakaseomyces glabratus, in the assay on Candida albicans, with Pichia kudriavzevii and with Candida tropicalis was “Not Active” each time.

As to `CCCCCC#CC#CC#CCCCCCC(O)C(=O)O` (stereo not drawn), the “inhibition (INH)” value is recorded as greater than 75% with Pseudomonas aeruginosa, greater than 75% in the assay with Staphylococcus aureus [1], 50% with Streptococcus pyogenes and greater than 75% with Escherichia coli. Further, the IC50 in the assay on Candida parapsilosis (setting [3]) is 2 µM; in the assay on Nakaseomyces glabratus (setting [4]), 500 µM; in the assay on Candida albicans it was “Not Active”; in the assay on Pichia kudriavzevii (setting [5]), 500 µM; in the assay on Candida tropicalis (setting [6]), 500 µM.

On to `CCCCCC/C=C\C#CC#CCCCCC(O)C(=O)OC` (stereo not drawn), for which the “inhibition (INH)” value is given as greater than 75% with Pseudomonas aeruginosa; 50% in the assay on Staphylococcus aureus [1]; greater than 75% in the assay with Streptococcus pyogenes; 25% in the assay on Escherichia coli; greater than 75% in the assay with Staphylococcus aureus [2]. Also, the IC50 was 30 µM in the assay on Candida parapsilosis (setting [3]); 1000 µM in the assay with Nakaseomyces glabratus (setting [4]); “Not Active” with Candida albicans; “Not Active” in the assay on Pichia kudriavzevii; “Not Active” in the assay with Candida tropicalis.

Turning to `CCCC#C/C=C\C#CCCCCC[C@@H]1O[C@](C)(OC)[C@@](C)(OC)OC1=O`, the “inhibition (INH)” value with Pseudomonas aeruginosa is recorded as greater than 75%; in the assay with Staphylococcus aureus [1], 25%; in the assay on Streptococcus pyogenes, greater than 75%; in the assay on Escherichia coli, 50%; in the assay with Staphylococcus aureus [2], 25%. Further, the IC50 entry in the assay with Candida parapsilosis, with Nakaseomyces glabratus, with Candida albicans, with Pichia kudriavzevii and in the assay on Candida tropicalis was “Not Active” each time.

On to `CCCCC#CC#C/C=C/CCCCCCC(O)C(=O)O` (stereo not drawn), for which the “inhibition (INH)” value was greater than 75% in the assay with Pseudomonas aeruginosa, 50% with Staphylococcus aureus [1] and 25% in the assay with Streptococcus pyogenes. The IC50 in the assay with Candida parapsilosis (setting [3]) came out at 250 µM; in the assay on Nakaseomyces glabratus (setting [4]), 500 µM; in the assay on Candida albicans (setting [7]), 500 µM; in the assay on Pichia kudriavzevii (setting [5]) it was 500 µM; in the assay with Candida tropicalis (setting [6]) it was 500 µM.

In the case of `CCCCC/C=C\C#CC#CCCCCC[C@@H]1O[C@](C)(OC)[C@@](C)(OC)OC1=O`, the “inhibition (INH)” value in the assay on Pseudomonas aeruginosa is greater than 75%; in the assay on Staphylococcus aureus [1], 50%; in the assay with Streptococcus pyogenes it was greater than 75%; in the assay with Escherichia coli, 50%; in the assay on Staphylococcus aureus [2], 25%. In addition, the IC50 result in the assay with Candida parapsilosis, in the assay with Nakaseomyces glabratus, in the assay on Candida albicans, in the assay on Pichia kudriavzevii and with Candida tropicalis was “Not Active” throughout.

As to `O=C(O)C(O)CCCCCCC#C/C=C\C#Cc1ccco1` (stereo not drawn), the “inhibition (INH)” value was greater than 75% in the assay on Pseudomonas aeruginosa; greater than 75% in the assay with Staphylococcus aureus [1]; greater than 75% in the assay on Streptococcus pyogenes; greater than 75% in the assay with Escherichia coli; 25% in the assay with Staphylococcus aureus [2]. For the same compound, the IC50 with Candida parapsilosis (setting [3]) is 500 µM; with Nakaseomyces glabratus, “Not Active”; in the assay with Candida albicans, “Not Active”; in the assay on Pichia kudriavzevii, “Not Active”; in the assay on Candida tropicalis, “Not Active”.

For `CCCC/C=C\C#CC#CCCCCCC(O)C(=O)NCC(C)C` (stereo not drawn), the “inhibition (INH)” value with Pseudomonas aeruginosa is recorded as greater than 75%; in the assay with Staphylococcus aureus [1] it was 50%; with Streptococcus pyogenes it was greater than 75%; with Escherichia coli it was 50%; with Staphylococcus aureus [2], greater than 75%. Besides, the half-inhibitory concentration (IC50) entry with Candida parapsilosis, with Nakaseomyces glabratus, in the assay on Candida albicans, in the assay on Pichia kudriavzevii and in the assay with Candida tropicalis was “Not Active” each time.

`CCCC#CC#CC#CCCCCCC(O)C(=O)O` (stereo not drawn): the “inhibition (INH)” value in the assay on Pseudomonas aeruginosa, in the assay on Staphylococcus aureus [1], in the assay on Streptococcus pyogenes and in the assay with Escherichia coli was greater than 75% throughout. For the same compound, the IC50 with Candida parapsilosis (setting [3]) turned out to be 125 µM; with Nakaseomyces glabratus (setting [4]), 500 µM; in the assay with Candida albicans (setting [7]), 500 µM; in the assay on Pichia kudriavzevii (setting [5]), 500 µM; with Candida tropicalis (setting [6]) it was 500 µM.

Take `CCCCC#C/C=C\C#CCCCCCCC(O)C(=O)O` (stereo not drawn): the “inhibition (INH)” value in the assay on Pseudomonas aeruginosa, in the assay with Staphylococcus aureus [1], in the assay on Streptococcus pyogenes and with Escherichia coli was greater than 75% throughout. In addition, the IC50 was 500 µM in the assay on Candida parapsilosis (setting [3]); “Not Active” with Nakaseomyces glabratus; “Not Active” in the assay with Candida albicans; “Not Active” with Pichia kudriavzevii; “Not Active” in the assay with Candida tropicalis.

As for `CCCCCC#CC#C/C=C/CCCCCC(O)C(=O)O` (stereo not drawn), the “inhibition (INH)” value with Pseudomonas aeruginosa is on record as greater than 75%; with Streptococcus pyogenes, 50%; with Escherichia coli, 25%; in the assay on Staphylococcus aureus [2], greater than 75%. The 50% inhibitory concentration (IC50) came out at 2 µM in the assay on Candida parapsilosis (setting [3]); 500 µM with Nakaseomyces glabratus (setting [4]); 500 µM with Candida albicans (setting [7]); 500 µM in the assay on Pichia kudriavzevii (setting [5]); 500 µM in the assay on Candida tropicalis (setting [6]).
